Here are results for 12 molecules from US20070105890A1, “Novel condensed imidazole derivative” (DAINIPPON SUMITOMO PHARMA CO., LTD, priority 2003, published 2007).

Counter-ions that a name gives are not always drawn.

By IC50 is commonly meant the concentration that inhibits the measured activity by half. A low value points to greater potency in that assay.

T2 sequence (P27487 39-766 limits assumed): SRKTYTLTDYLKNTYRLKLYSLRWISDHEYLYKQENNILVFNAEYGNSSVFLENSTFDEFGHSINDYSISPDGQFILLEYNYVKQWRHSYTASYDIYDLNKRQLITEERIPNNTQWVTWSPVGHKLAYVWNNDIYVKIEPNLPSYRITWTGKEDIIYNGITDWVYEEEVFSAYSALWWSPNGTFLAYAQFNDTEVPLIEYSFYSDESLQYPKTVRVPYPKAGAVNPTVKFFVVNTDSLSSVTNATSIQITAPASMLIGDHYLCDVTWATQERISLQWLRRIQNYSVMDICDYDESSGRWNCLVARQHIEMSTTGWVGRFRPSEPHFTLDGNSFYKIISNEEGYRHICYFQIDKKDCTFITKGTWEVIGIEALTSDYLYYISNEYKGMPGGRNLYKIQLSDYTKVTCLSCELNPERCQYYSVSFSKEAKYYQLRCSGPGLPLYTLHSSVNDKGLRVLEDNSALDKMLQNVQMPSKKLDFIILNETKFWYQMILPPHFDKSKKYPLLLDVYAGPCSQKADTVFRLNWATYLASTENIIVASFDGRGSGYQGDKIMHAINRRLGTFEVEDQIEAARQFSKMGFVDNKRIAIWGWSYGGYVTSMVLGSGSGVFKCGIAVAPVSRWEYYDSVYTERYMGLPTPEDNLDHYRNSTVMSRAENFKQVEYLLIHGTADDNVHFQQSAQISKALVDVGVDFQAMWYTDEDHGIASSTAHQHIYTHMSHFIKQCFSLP

The first test deals with T1, DPP-IV enzyme (Bos taurus, UniProt P81425).
T1 construct: Bovine plasma containing DPP-IV enzyme was diluted with assay buffer; from tissue; host or cells: bovine plasma
T1 sequence (P81425 38-765 limits assumed): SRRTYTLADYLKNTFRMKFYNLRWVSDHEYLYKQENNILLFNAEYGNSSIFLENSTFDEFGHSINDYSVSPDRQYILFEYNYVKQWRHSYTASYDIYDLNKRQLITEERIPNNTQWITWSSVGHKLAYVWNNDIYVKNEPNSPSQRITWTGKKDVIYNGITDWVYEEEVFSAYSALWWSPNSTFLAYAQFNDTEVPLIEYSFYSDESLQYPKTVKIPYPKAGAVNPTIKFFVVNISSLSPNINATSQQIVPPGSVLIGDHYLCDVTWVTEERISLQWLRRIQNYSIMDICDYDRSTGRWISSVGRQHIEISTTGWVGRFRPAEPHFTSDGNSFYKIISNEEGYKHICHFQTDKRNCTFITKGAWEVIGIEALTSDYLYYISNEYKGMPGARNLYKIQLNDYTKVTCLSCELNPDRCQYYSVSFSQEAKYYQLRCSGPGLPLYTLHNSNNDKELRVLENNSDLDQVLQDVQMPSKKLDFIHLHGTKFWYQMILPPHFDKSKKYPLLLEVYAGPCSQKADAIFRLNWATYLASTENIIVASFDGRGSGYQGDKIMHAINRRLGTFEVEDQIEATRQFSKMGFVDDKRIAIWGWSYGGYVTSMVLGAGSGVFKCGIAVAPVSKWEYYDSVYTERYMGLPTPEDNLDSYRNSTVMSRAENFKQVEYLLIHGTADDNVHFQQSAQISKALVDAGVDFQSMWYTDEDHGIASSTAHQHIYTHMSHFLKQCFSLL
As to the kind of experiment: In Vitro DPP-IV Inhibitory Effect Measurement Test (1), bovine plasma. The format is biochemical. As to conditions: substrate Glycyl-L-Proline 4-Methyl-Coumaryl-7-Amide, Table 1. The procedure: In Vitro DPP-IV Inhibitory Effect Measurement Test (1)
Bovine plasma containing DPP-IV enzyme was diluted with assay buffer (25 mM Tris-HCl, 140 mM NaCl, 10 mM KCl, pH=7.9) and 50 μL of the dilution was added to a micro assay plate. After 1 μL of a solution of each compound was added, mixing was conducted, followed by incubation at room temperature. A substrate (Glycyl-L-Proline 4-Methyl-Coumaryl-7-Amide, Peptide Laboratories Co., Ltd.) was diluted to 0.2 mM with the assay buffer, and 50 μL of this solution was added and then stirred, followed by incubation at room temperature. Thereafter, the reaction was terminated by the addition of 100 μL of a 25% aqueous acetic acid solution. The intensity of fluorescence at an excitation wavelength of 360 nm and a measuring wavelength of 460 nm was measured by the use of a fluorescent plate reader. The difference in intensity of fluorescence between a background well in which the reaction had been terminated by previously adding a 25% aqueous acetic acid solution before the addition of the substrate solution and a control well to which no compound had been added was taken as 100%. The intensity of fluorescence of a well containing the compound was interpolated and the residual enzyme activity in the case of the addition of the compound was calculated as a relative value.
(§1) Compounds of Examples were used in this test.
The molecule `N[C@@H]1CCCN(c2nc3cc(C(=O)O)[nH]c(=O)c3n2Cc2ccccc2Cl)C1` [Example 13] came in with an IC50 of 5 nM.

With `Cn1ccc2nc(N3CCC[C@@H](N)C3)n(Cc3cc(F)ccc3Cl)c2c1=O` [Example 11], the IC50 is 44 nM.

Take `COc1cccc(CC(=O)c2cc3nc(N4CCC[C@@H](N)C4)n(Cc4ccccc4Cl)c3c(=O)n2C)c1` [Example 38]: it took 112 nM to reach half-maximal inhibition (IC50).

Regarding `N[C@@H]1CCCN(c2nc3ccn(CC(=O)c4ccccc4)c(=O)c3n2Cc2ccccc2Cl)C1` [Example 7], inhibition was half-maximal at 1.4 nM (IC50).

In turn, `N[C@@H]1CCCN(c2nc3ccn(-c4cccc(F)c4)c(=O)c3n2Cc2ccccc2Cl)C1` [Example 30] had an IC50 of 203 nM.

The molecule `Cn1c(C#N)cc2nc(N3CCC[C@@H](N)C3)n(Cc3ccccc3Cl)c2c1=O` [Example 2, 2-[(3R)-3-Aminopiperidin-1-yl]-3-(2-chlorobenzyl)-5-methyl-4-oxo-4,5-dihydro-3H-imidazo[4,5-c]pyridine-6-carbonitrile hydrochloride] gave an IC50 of 11 nM.

Regarding `Cn1ccc2nc(N3CCC[C@@H](N)C3)n(Cc3ccccc3Cl)c2c1=O` [Example 4, 2-[(3R)-3-Aminopiperidin-1-yl]-3-(2-chlorobenzyl)-5-methyl-3,5-dihydro-4H-imidazo[4,5-c]pyridin-4-one], the IC50 turned out to be 68 nM.

Another test has as its target T2, DPP-IV enzyme (Homo sapiens, UniProt P27487).
T2 construct: Human serum containing DPP-IV enzyme was used in an experiment after being diluted with assay buffer; from tissue; host or cells: human serum
As to the kind of experiment: In Vitro DPP-IV Inhibitory Effect Measurement Test (2), human serum. In kind it is biochemical. As to conditions: DPP-IV in human serum (diluted 10-fold); substrate Glycyl-L-Proline 4-Methyl-Coumaryl-7-Amide 100 μM; Table 2. The procedure: In Vitro DPP-IV Inhibitory Effect Measurement Test (2)
Human serum containing DPP-IV enzyme was used in an experiment after being diluted with assay buffer (25 mM Tris-HCl, 140 mM NaCl, 10 mM KCl, pH 7.9) (finally, diluted 10-fold). Each of solutions of each test compound having various concentrations was added to the diluted serum and the resulting mixture was incubated at room temperature. Then, a substrate (Glycyl-L-Proline 4-Methyl-Coumaryl-7-Amide, Peptide Laboratories Co., Ltd.) was added thereto to a final concentration of 100 μM and the reaction was carried out at room temperature.
as §1
Molecule `Cn1c(=O)c2c(nc(N3CCC[C@@H](N)C3)n2Cc2ccccc2Cl)c2cc3c(cc21)C(=O)OC3` [Example 90, 2-[(3R)-3-Aminopiperidin-1-yl]-3-(2-chlorobenzyl)-5-methyl-5,9-dihydro-3H-furo[3,4-g]imidazo[4,5-c]quinoline-4,7-dione hydrochloride] returned an IC50 of 11 nM.

`COC(=O)c1c2c(nn1Cc1ccc(OC)cc1)c1nc(N3CCC[C@@H](N)C3)n(Cc3ccccc3Cl)c1c(=O)n2C` [Example 94, Methyl 7-[(3R)-3-aminopiperidin-1-yl]-6-(2-chlorobenzyl)-2-(4-methoxybenzyl)-4-methyl-5-oxo-2,4,5,6-tetrahydroimidazo[4,5-d]pyrazolo[4,3-b]pyridine-3-carboxylate hydrochloride] came in with an IC50 of 42 nM.

In turn, `N[C@@H]1CCCN(c2nc3c4cc(C(=O)O)ccc4[nH]c(=O)c3n2Cc2ccccc2Cl)C1` [Example 48, 2-{(3R)-3-Aminopiperidin-1-yl}-3-(2-chlorobenzyl)-4-oxo-4,5-dihydro-3H-imidazo[4,5-c]quinoline-8-carboxylic acid hydrochloride] came in with an IC50 of 45 nM.

The molecule `Cn1c(=O)c2c(nc(N3CCC[C@@H](N)C3)n2Cc2ccccc2Cl)c2csc(C(=O)O)c21` [Example 102, 2-[(3R)-3-Aminopiperidin-1-yl]-3-(2-chlorobenzyl)-5-methyl-4-oxo-4,5-dihydro-3H-imidazo[4,5-d]thieno[3,4-b]pyridine-6-carboxylic acid hydrochloride] displayed an IC50 of 12 nM.

`Cn1c(=O)c2c(nc(N3CCC[C@@H](N)C3)n2Cc2ccccc2Cl)c2c(C(=O)O)c(F)ccc21` [Example 97, 2-[(3R)-3-aminopiperidin-1-yl]-3-(2-chlorobenzyl)-8-fluoro-5-methyl-4-oxo-4,5-dihydro-3H-imidazo[4,5-c]quinoline-9-carboxylic acid hydrochloride] gave an IC50 of 14 nM.
